Measured values from paper PMC4879574, “Identification of Leishmania donovani Topoisomerase 1 inhibitors via intuitive scaffold hopping and bioisosteric modification of known Top 1 inhibitors” (Scientific Reports, 2016).
Values joined by “and” are separate entries in the source; they are usually repeats but may differ in a detail not shown here. Equal values may be shown once. Read-outs that look alike come from different tables or passages of the source.

How the values were obtained:
Human Top1 (HTop1) = molecular target: T1, Human Top1 (HTop1) (Homo sapiens, UniProt P11387); assay: Plasmid DNA relaxation assay, HTop1; format: biochemical; conditions: averages of three experiments, read-out: HTop1 inhibition (EC50)
T1 construct: made in house; host or cells: Sf-9 insect cells infected with recombinant baculovirus (gift from Prof. J. J. Champoux)
T1 sequence (P11387 1-765): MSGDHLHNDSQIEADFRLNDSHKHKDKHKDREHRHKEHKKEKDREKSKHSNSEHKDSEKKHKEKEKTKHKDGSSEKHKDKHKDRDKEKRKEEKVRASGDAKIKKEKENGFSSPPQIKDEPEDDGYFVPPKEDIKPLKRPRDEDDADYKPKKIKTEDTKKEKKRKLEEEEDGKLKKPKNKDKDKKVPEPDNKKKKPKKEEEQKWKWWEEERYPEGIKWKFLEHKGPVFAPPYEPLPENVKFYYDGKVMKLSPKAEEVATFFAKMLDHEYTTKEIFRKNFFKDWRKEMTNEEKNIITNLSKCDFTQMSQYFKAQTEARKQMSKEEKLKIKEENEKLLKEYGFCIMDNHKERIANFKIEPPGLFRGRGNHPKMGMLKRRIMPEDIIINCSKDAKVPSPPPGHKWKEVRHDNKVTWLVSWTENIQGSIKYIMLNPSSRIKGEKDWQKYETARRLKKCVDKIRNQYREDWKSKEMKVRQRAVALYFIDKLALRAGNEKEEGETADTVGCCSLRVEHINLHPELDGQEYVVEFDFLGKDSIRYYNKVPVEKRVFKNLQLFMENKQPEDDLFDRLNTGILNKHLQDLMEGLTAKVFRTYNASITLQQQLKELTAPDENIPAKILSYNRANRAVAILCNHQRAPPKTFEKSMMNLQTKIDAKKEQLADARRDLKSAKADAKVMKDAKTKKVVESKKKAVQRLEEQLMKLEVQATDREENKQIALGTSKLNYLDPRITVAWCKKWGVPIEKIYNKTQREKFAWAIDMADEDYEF
Procedure: (§1) To investigate the inhibitory effect of our library compounds on the DNA relaxation activity of the recombinant Human and Leishmania topoisomerase 1 (Table 2), assays were performed involving supercoiled plasmid DNA, the enzymes (HTop1 and LdTop1) and our molecules. The enzymes were purified by the standard literature procedure.
(§2) The type I DNA topoisomerase are assayed by decreased mobility of the relaxed isomers of supercoiled pBS (SK^+) [pBlue-script (SK^+)] DNA in agarose gel. The relaxation assay was carried out as described previously with LdTop1B and HTop I, diluted in the relaxation buffer (25 mM Tris–HCl, pH 7.5, 5% glycerol, 0.5 mM DTT, 10 mM MgCl2, 50 mM KCl, […] and […] BSA) and supercoiled plasmid pBS (SK^+) DNA (85–95% were negatively supercoiled, with remainder being nicked circles)[9][28][29]. The reconstituted enzyme LdTop1B was assayed at 50 mM KCl concentration as described before. For all kinetic studies, the reaction mixtures containing the buffer and DNA were heated to 37 °C before addition of the enzymes. The reactions were rapidly quenched using stop solution and kept on ice. The gels were stained with ethidium bromide (EtBr) ([…]) and the amount of supercoiled monomer DNA band fluorescence were quantified by integration using Gel Doc 2000 under UV illumination (Bio-Rad Quantity One Software), as described previously.
The wild-type HTop1 (91 kDa) was purified from Sf-9 insect cells infected with the recombinant baculovirus (a kind gift from Prof. J. J. Champoux). Approximately, 1 * 10^9 Sf-9 cells were infected with the recombinant virus, and cells were harvested after 48-h of infection. The cells were lysed and enzyme was purified as described. Briefly, at 48 h post-infection, approximately 3 * 10^9 Sf-9 cells were harvested by centrifugation for 5 min at 400 * g. The cells were resuspended in 1 liter of ice-cold phosphate-buffered saline and centrifuged for 5 min at 400 * g. The nuclei were washed twice in 80 ml of lysis buffer minus Triton X-100 and resuspended in 40 ml of resuspension buffer (50 mM KCl, 10 mM Tris-Cl, pH 7.5, 2 mM MgCl2, 25 mM DTT, 0.4 mg/ml phenylmethylsulfonyl fluoride, 0.12 mg/ml aprotinin). The nuclear extract was stirred for 5 min at ~200 rpm. With continued stirring, 50 ml of polyethylene glycol (PEG) buffer (18% PEG 8000, 1 M NaCl, 10% glycerol) was added dropwise in order to precipitate the DNA. The PEG precipitate was pelleted by centrifugation and the resulting PEG supernatant was dialyzed against 4 liters of potassium phosphate buffer. The dialyzed PEG supernatant passed over a 10-ml bed volume of phosphocellulose (Whatman P11) equilibrated with PPB. The HTop1 flowed through the PS column and then passed over a Mono Q column followed by loaded onto a Mono S column. The Mono S column was eluted with a 25-ml 50–200 mM KPO4, pH 7.4, gradient. […] The peak Mono S fractions were pooled, concentrated with an Amicon ultrafiltration cell, dialyzed into storage buffer (50% glycerol, 10 mM Tris-hydrochloride, pH 7.5, 1 mM DTT, 1 mM EDTA), and stored at −20 °C.

[1] = molecular target: Leishmania donovani Topoisomerase 1 (LdTop1) (Leishmania donovani, UniProt A0A3Q8IHS4+Q8WQM6); assay: Plasmid DNA relaxation assay, LdTop1 (simultaneous incubation); format: biochemical
Sequence of Leishmania donovani Topoisomerase 1 (LdTop1) (Q8WQM6 entry or part of it): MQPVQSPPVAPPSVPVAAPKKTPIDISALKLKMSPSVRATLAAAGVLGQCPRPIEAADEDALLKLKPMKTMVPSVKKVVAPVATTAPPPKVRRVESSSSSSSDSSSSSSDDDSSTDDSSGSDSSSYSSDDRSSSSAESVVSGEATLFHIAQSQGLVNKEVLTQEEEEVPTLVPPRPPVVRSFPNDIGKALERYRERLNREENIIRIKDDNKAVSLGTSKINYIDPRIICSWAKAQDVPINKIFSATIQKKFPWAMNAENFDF
Sequence of Leishmania donovani Topoisomerase 1 (LdTop1) (A0A3Q8IHS4 entry or part of it): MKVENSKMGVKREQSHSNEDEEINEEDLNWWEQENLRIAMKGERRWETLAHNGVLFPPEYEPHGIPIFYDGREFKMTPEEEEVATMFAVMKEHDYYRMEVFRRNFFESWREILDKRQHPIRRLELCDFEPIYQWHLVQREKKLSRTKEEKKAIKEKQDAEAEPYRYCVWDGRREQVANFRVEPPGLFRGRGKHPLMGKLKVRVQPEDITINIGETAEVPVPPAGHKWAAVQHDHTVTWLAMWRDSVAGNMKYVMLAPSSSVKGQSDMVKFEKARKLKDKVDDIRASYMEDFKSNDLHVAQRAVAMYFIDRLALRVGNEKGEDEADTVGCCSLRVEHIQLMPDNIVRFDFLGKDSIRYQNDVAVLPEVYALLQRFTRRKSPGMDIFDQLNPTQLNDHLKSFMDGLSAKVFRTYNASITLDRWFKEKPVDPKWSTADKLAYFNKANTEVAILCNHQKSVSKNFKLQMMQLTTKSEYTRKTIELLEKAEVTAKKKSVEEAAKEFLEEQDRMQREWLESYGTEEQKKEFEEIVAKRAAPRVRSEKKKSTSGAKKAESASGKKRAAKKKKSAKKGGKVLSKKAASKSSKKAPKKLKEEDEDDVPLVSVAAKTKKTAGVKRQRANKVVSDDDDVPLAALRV
Procedure: as §1
All the experiments were conducted thrice and representative data from once set of them are expressed as mean ± SD.
as §2
Cells harvested from 1 litre of culture were separately lysed by lysozyme/sonication, and the proteins were purified through Ni-NTA (Ni^2+-nitriloacetate-agarose column (Qiagen, Hilden, Germany) followed by a phospho-cellulose column (P11 cellulose; Whatman, Maidstone Kent, UK) as described previously. Finally, the purified proteins LdTOP1L and LdTOP1S were stored at −70 °C. The concentrations of each protein were quantified by using Bradford Reagent (PIERCE, Thermo Fisher Scientific Inc., Rockford, USA). Purified LdTOP1L was mixed with purified LdTOP1S at a molar ratio of 1:1 to a total protein concentration of 0.5 mg/ml in reconstitution buffer [50 mM potassium phosphate, pH 7.5, 0.5 mM DTT, 1 mM EDTA, 0.1 mM PMSF and 10% (v/v) glycerol]. The mixture was dialyzed overnight at 4 °C and dialyzed fractions were used for plasmid relaxation activity.

[2] = plasmid DNA relaxation, averages of three experiments, read-out: LDTop1 inhibition (EC50)
[3] = LdTop1 relaxation, 12.5 uM, read-out: % inhibition, mean data
[4] = LdTop1 relaxation, 25 uM, read-out: % inhibition, mean data
[5] = LdTop1 relaxation, 50 uM, read-out: % inhibition, mean data
[6] = LdTop1 relaxation, 100 uM, read-out: % inhibition, mean data
[7] = read-out: % inhibition (CPT 100%), data 1, LdTop1 relaxation, 12.5 uM
[8] = read-out: % inhibition (CPT 100%), data 1, LdTop1 relaxation, 25 uM
[9] = read-out: % inhibition (CPT 100%), data 1, LdTop1 relaxation, 50 uM
[10] = read-out: % inhibition (CPT 100%), data 1, LdTop1 relaxation, 100 uM
[11] = read-out: % inhibition (CPT 100%), data 2, LdTop1 relaxation, 12.5 uM
[12] = read-out: % inhibition (CPT 100%), data 2, LdTop1 relaxation, 25 uM
[13] = read-out: % inhibition (CPT 100%), data 2, LdTop1 relaxation, 50 uM
[14] = read-out: % inhibition (CPT 100%), data 2, LdTop1 relaxation, 100 uM
[15] = supplement sheet Ld Top 1 data, concentrations in uM, read-out: EC50 (LdTop1, supplement sheet)

Row | Structure (SMILES) | EC50 (Human Top1 (HTop1)) [µM] | LdTop1 inhibitory activity ([1]; plasmid DNA relaxation) | EC50 [1, 2] | inhibition at 12.5 µM [1, 3] [%] | inhibition at 25 µM [1, 4] [%] | inhibition at 50 µM [1, 5] [%] | inhibition at 100 µM [1, 6] [%] | inhibition at 12.5 µM [1, 7] [%] | inhibition at 25 µM [1, 8] [%] | inhibition at 50 µM [1, 9] [%] | inhibition at 100 µM [1, 10] [%] | inhibition at 12.5 µM [1, 11] [%] | inhibition at 25 µM [1, 12] [%] | inhibition at 50 µM [1, 13] [%] | inhibition at 100 µM [1, 14] [%] | EC50 [1, 15] [µM] | also measured
1 | Cc1cc2c(c(=O)[nH]1)C(=O)O/C2=C\c1cccc2ccccc12 [Compound 11] | > 100 | no inhibitory activity at all | > 100 µM | – | – | – | – | – | – | – | – | – | – | – | – | – | –
2 | Cc1cc2c(c(=O)[nH]1)C(=O)O/C2=C\c1ccc(F)c(F)c1 [Compound 8] | > 100 | complete loss of activity | > 100 µM | – | – | – | – | – | – | – | – | – | – | – | – | – | –
3 | COc1ccc(/C=C2\OC(=O)c3c2cc(C)[nH]c3=O)cc1 [Compound 19] | > 100 | – | > 100 µM | – | – | – | – | – | – | – | – | – | – | – | – | – | –
4 | Cc1cc2c(c(=O)[nH]1)C(=O)O/C2=C\c1ccc(Cl)cc1 [Compound 17] | > 100 | – | > 100 µM | – | – | – | – | – | – | – | – | – | – | – | – | – | –
5 | Cc1cc2c(c(=O)[nH]1)C(=O)O/C2=C\c1ccc(I)cc1 [Compound 18] | > 100 | – | > 100 µM | – | – | – | – | – | – | – | – | – | – | – | – | – | –
6 | Cc1cc2c(c(=O)[nH]1)C(=O)O/C2=C\c1ccccc1 [Compound 13] | > 100 | – | > 100 µM | – | – | – | – | – | – | – | – | – | – | – | – | – | –
7 | COc1ccc(/C=C2\OC(=O)c3c2cc(C)[nH]c3=O)c(C)c1C [Compound 2] | > 100 | considerable activity | 10 µM and 10.1 µM | 50.1 | 65.2 | 85.1 | 99.5 | 50.1 | 66.8 | 85.8 | 100 | 50.1 | 63.7 | 84.4 | 98.9 | 10.2 | –
8 | Cc1cc2c(c(=O)[nH]1)C(=O)O/C2=C\c1ccc2c(c1)OCO2 [Compound 6] | > 100 | complete loss of activity | > 100 µM | – | – | – | – | – | – | – | – | – | – | – | – | – | –
9 | Cc1cc2c(c(=O)[nH]1)C(=O)O/C2=C\c1c[nH]c2ccccc12 [Compound 5] | > 100 | no inhibitory activity at all | > 100 µM | – | – | – | – | – | – | – | – | – | – | – | – | – | –
10 | Cc1cc2c(c(=O)[nH]1)C(=O)O/C2=C\c1cccc(Br)c1 [Compound 9] | > 100 | considerable activity | 7.51 ± 1.02 µM | 52.2 | 68.2 | 88.4 | 93 | 52.9 | 69.6 | 89.7 | 95.5 | 51.4 | 66.8 | 87.2 | 90.5 | 7.51 | –
11 | Cc1cc2c(c(=O)[nH]1)C(=O)O/C2=C\c1ccccc1Br [Compound 20] | > 100 | – | > 100 µM | – | – | – | – | – | – | – | – | – | – | – | – | – | –
12 | Cc1cc2c(c(=O)[nH]1)C(=O)O/C2=C\c1ccccc1C(F)(F)F [Compound 3] | > 100 | considerable activity | 9.06 ± 1.77 µM | 52.5 | 67.3 | 87.5 | 91.3 | 51.2 | 68.8 | 88.7 | 93.7 | 53.7 | 65.8 | 86.2 | 88.9 | 9.06 | –
13 | Cc1cc2c(c(=O)[nH]1)C(=O)O/C2=C\c1cccc(I)c1 [Compound 15] | > 100 | considerable activity | 17.4 ± 1.86 µM | 42.1 | 55.3 | 75.2 | 91.7 | 41.1 | 53.2 | 76.2 | 93 | 43.1 | 57.3 | 74.3 | 90.5 | 17.4 | % inhibition (CPT 100%), data 2 ([1]; LdTop1 relaxation, 50 uM): 74.2517%
14 | Cc1cc2c(c(=O)[nH]1)C(=O)O/C2=C\c1cccc(Cl)c1 [Compound 14] | > 100 | considerable activity | – | 30.6 | 48.1 | 61.5 | 87.2 | 32 | 46.9 | 58.6 | 88.2 | 29.1 | 49.4 | 64.3 | 86.2 | 35.6 | % inhibition (CPT 100%), data 1 ([1]; LdTop1 relaxation, 12.5 uM): 32.026%; % inhibition (CPT 100%), data 1 ([1]; LdTop1 relaxation, 25 uM): 46.8807%; % inhibition, mean data ([1]; LdTop1 relaxation, 50 uM): 61.4846%; % inhibition (CPT 100%), data 1 ([1]; LdTop1 relaxation, 100 uM): 88.2434%; % inhibition (CPT 100%), data 2 ([1]; LdTop1 relaxation, 100 uM): 86.2086%; % inhibition, mean data ([1]; LdTop1 relaxation, 100 uM): 87.226%
15 | Cc1cc2c(c(=O)[nH]1)C(=O)O/C2=C\c1ccccc1Cl [Compound 21] | > 100 | – | > 100 µM | – | – | – | – | – | – | – | – | – | – | – | – | – | –
16 | COc1cccc(/C=C2\OC(=O)c3c2cc(C)[nH]c3=O)c1OC [Compound 12] | > 100 | inactive | > 100 µM | – | – | – | – | – | – | – | – | – | – | – | – | – | –
